Test results from patent publication US7319029B2, “Lipase from Geobacillus sp. strain T1” (Universiti Purta Malaysia, priority 2004, dated 2008).
Where a SMILES comes first, the peptide text is derived from it. [ ]: non-standard residue; d: D form. The star is where a group is joined. Sta = CC(C)C[C@H](N)[C@@H](O)CC(=O)O; Isovaleryl = CC(C)CC(=O)*

What was measured:
T1 mature lipase [1] = assay: Effect of metal ions, surfactants and inhibitors on lipase activity; assay type: biochemical, Geobacillus sp. strain T1; conditions: for Effect of metal ion on lipase activity: 1 mM, after 30 min of treatment; for Effect of metal ion on lipase activity / Inhibition of lipase activity / Effect of inhibitor on lipase activity: 50° C.; for Inhibition of lipase activity: metal ion 1 mM, after 30 min; for Effect of inhibitor on lipase activity: 5 mM (Pepstatin 1 mM), 30 min; for Effect of surfactant on lipase activity: 0.1%
Protocol: The T1 lipase was tested at temperatures ranging from 40° C. to 80° C. at 5° C. intervals for 30 min for enzyme activity. The thermostability test was conducted at various temperatures for different hours. Recombinant T1 lipase was also kept at a wide range of pH values ranging from pH 4-12 for pH activity and stability determination. The buffer systems used were 50 mM acetate buffer (pH 4-6), potassium phosphate buffer (pH 6-8), Tris-HCl buffer (pH 8-9), glycine-NaOH buffer (pH 9-11), and Na2HPO3/NaOH buffer (pH 11-12). The effect of effectors (metal ions, surfactants) and inhibitors were studied at a concentration of 1 mM and 5 mM, respectively at 50° C. for 30 min with an exceptional for pepstatin (1.0 mM).
The effect of metal ion at final concentration of 1 mM was tested by treatment at 50° C. for 30 min. […] The effect of surfactants on lipase activity on lipase activity was studied at concentration of 0.1% (FIG. 6).
The effect of inhibitors on lipase activity on several metal chelating agent, reducing agents, serine and aspartate inhibitors were used to study the inhibition effect to T1 mature lipase.

T1 mature lipase [2] = assay: as above; assay type: biochemical, Geobacillus sp. strain T1; conditions: 1 mM, 50° C., after 15 min of treatment
P1 lipase = conditions: 10 mM of PMSF; cited from earlier work

| Compound | Effect of metal ion on lipase activity (T1 mature lipase [1]) | Effect of inhibitor on lipase activity (T1 mature lipase [1]) | other results |
| --- | --- | --- | --- |
| [Ca+2] [Ca^2+] | stabilizing effect |  |  |
| [Cu+2] [Cu^2+] |  |  | Inhibition of lipase activity (T1 mature lipase [1]): 52% |
| O[C@@H](CS)[C@@H](O)CS [DTT] |  | little inhibition effect |  |
| O=C(O)CN(CCN(CC(=O)O)CC(=O)O)CC(=O)O [EDTA] |  | slightly effect |  |
| [Fe+2] [Fe^2+] |  |  | Inhibition of lipase activity (T1 mature lipase [1]): 60% |
| [K+] [K^+] | stabilizing effect |  | Effect of metal ion on lipase activity (T1 mature lipase [2]): slightly enhanced |
| [Mg+2] [Mg^2+] | stabilizing effect |  |  |
| [Mn+2] [Mn^2+] | stabilizing effect |  | Effect of metal ion on lipase activity (T1 mature lipase [2]): slightly enhanced |
| [Na+] [Na^+] |  |  | Effect of metal ion on lipase activity (T1 mature lipase [2]): slightly enhanced |
| O=S(=O)(F)Cc1ccccc1 [PMSF] |  | strongly inhibited | Inhibition of P1 lipase (P1 lipase): 77% |
| CC(C)CC(=O)N[C@H](C(=O)N[C@H](C(=O)N[C@@H](CC(C)C)[C@@H](O)CC(=O)N[C@@H](C)C(=O)N[C@@H](CC(C)C)[C@@H](O)CC(=O)O)C(C)C)C(C)C [Pepstatin] (Isovaleryl-VV[Sta]A[Sta]-OH) |  | strongly inhibited |  |
| [Zn+2] [Zn^2+] | stabilizing effect |  |  |
| OCCS [β-mercaptoethanol] |  | little inhibition effect |  |
| Tween |  |  | Effect of surfactant on lipase activity (T1 mature lipase [1]): obvious enhancement; Effect of surfactant on lipase activity (T1 mature lipase [1]; listed as Tween 20-80): enhancement effect |
